Assay [1] relates to murine melanoma cancer cells (B16F0). Put plainly: Ad-RTS-mIL12 with different activator doses in the melanoma (B16F0) model. The settings on record: activator chow alone. In kind it is in vivo, mouse. The protocol: Female, 6- to 8-week-old C57b/6 immunocompetent mice were inoculated subcutaneously (s.c.) with murine melanoma cancer cells (B16F0). Ten days post cell inoculation, the mice were randomly assigned to treatment and control groups (n=5) for a total of nine groups: no treatment (control), activator (L) (RG-115932) alone, and AdRTS-mlL12 alone, and Ad-RTS-mIL12 with different activator dose (50, 100, 250, 500 and 1000 mg/kg) of ligand. The cohorts receiving activator (L) were fed rodent 2018 Teklad Global 18% Protein Rodent Diet chow blended with activator (1000 mg/kg chow) ad libitum. Cohorts receiving treatment with Ad-RTS-mIL12 alone or no treatment continued to receive a regular 2018 Teklad Global 18% Protein Rodent Diet chow diet. Treatment was initiated when the tumor reached […]. A single dose of Ad-RTSmIL12 (1e10 vp/100 ul in PBS) was given to mice through intratumoral (i.t.) injection on Day 13 post tumor cell inoculation. The activator (L) chow was given to mice 24 hr prior to vector injection. Tumor size and body weight of each mouse were monitored three times a week using calipers and a weight scale until the end of experiment. The experiment was terminated when the tumor size exceeded >2000 mm^3. Data were uploaded into Study Log animal study software.

The subject of assay [2] is murine colon cancer cells (CT26Luc). The assay is described as follows: Ad-RTS-mIL12 in the colon cancer (CT26Luc) model. The settings on record: activator chow alone. In kind it is in vivo, mouse. The text has this: Female, 6- to 8-week-old Balb/C immunocompetent mice were inoculated subcutaneously (s.c.) with luciferase expressing stable murine colon cancer cells (CT26Luc). Ten days post cell inoculation, the mice were randomly assigned to treatment and control groups (n=5) for a total of three groups—no treatment (control), activator (L) (RG-115932) alone, and Ad-RTS-mIL12 plus activator. The cohorts receiving activator (L) were fed 2018 Teklad Global 18% Protein Rodent Diet chow (Harlan Laboratories) blended with activator (1000 mg/kg chow) ad libitum. Cohorts receiving no treatment continued to receive 2018 Teklad Global 18% Protein Rodent Diet chow. Treatment was initiated when the tumor reached 40+17 mm^3. The Ad-RTS-mIL12 (1e10 vp/100 ul in PBS) was given to mice through intratumoral (i.t.) injection on Day 11 and 18 post tumor cell inoculation. The activator (L) chow was given to mice 24 hr prior to vector injection. Tumor size and body weight of each mouse were monitored three times a week using calipers and a weight scale until the end of experiment. The experiment was terminated when the mouse tumor size exceeds >2000 mm^3. Data were uploaded into Study Log animal study software.

Assay [3] has as its system B16F0 murine melanoma cancer cells. The assay is described as follows: Ad-RTS-IL-12 dose response study in the mouse B16F0 melanoma model. In kind it is in vivo. The settings on record: ligand by itself (chow). The text has this:
The anti-tumor effect of Ad-RTS-IL-12 has been evaluated in a series of murine tumor models of melanoma, colorectal, pancreatic, breast, lung and renal cancers. An exemplary dose response experiment is shown below. Immuno-competent female C57bl/6 mice (6-8 week old) were inoculated subcutaneously with B16F0 murine melanoma cancer cells. Eleven days after tumor cell inoculation, when macroscopic tumor nodules were evident (tumor volumes averaged approx. 40 mm^3), the mice were separated into groups of 5 animals each. There were 9 groups including: control saline treated; activator ligand treated; Ad-RTS-mIL12 ([…]) alone and 6 groups were treated with different doses of vector Ad-RTS-mIL-12 (1e7, 1e8, 1e9, 5e9, 1e10, 5e10 viral particles) plus activator ligand. Mice in the +ligand groups were provided 100 mg/kg activator ligand in 2018 Teklad Global 18% Protein Rodent Diet (Harlan Laboratories) chow (1000 mg ligand/kg chow) one day before the vector administration. The mice in control groups received 2018 Teklad Global 18% Protein Rodent Diet chow. A single administration of Ad-RTS-mIL12 in 100 ul PBS was injected into tumor on day 12. Tumor volume and body weights were measured every 2-3 days using calipers and a weight scale, and the animals were followed until control tumors reached 2000 mm^3. Data were uploaded into Study Log animal study software.

The test system of assay [4] is breast cancer (4T1) cells. The assay is described as follows: Ad-RTS-mIL12 in the breast cancer (4T1) model. It counts as in vivo, mouse. The settings on record: activator ligand alone, Day 26. The protocol:
Six- to eight-week-old female BalbC mice were purchased from Charles River Laboratories or Harlan (USA). Animal care and experimental procedure were performed according to the Intrexon's Institutional Animal Care and Use Committee guideline.
Murine breast carcinoma (4T1) cell lines were purchased from ATCC (Manassas, Va.). The 4T1 cells were grown in Roswell Park Memorial Institute medium (RPMI) 1640 (ATCC, Manassas, Va. The medium was supplemented with heat-inactivated fetal calf serum (FCS) 10% v/v, 2-mM L-glutamine (Atlanta Biologicals, Inc, Lawrenceville, Ga.), 100 IU/ml penicillin G, and 100 μg/ml streptomycin. The cells were grown at 37° C. in 5% C02. All cell lines were routinely tested and found to be free of mycoplasma.
Female, 6- to 8-week-old BALB/c immune-competent mice were inoculated subcutaneously (s.c.) with syngenic breast cancer (4T1) cells, 1e5 cells/50 ul. Eight days post cell inoculation, the mice were randomized into groups of five animals each in four groups—no treatment, activator alone, Ad-RTS-mIL12 alone and Ad-RTS-mIL12 plus activator. The cohorts receiving activator ligand were fed rodent chow blended with activator (1000 mg/kg) ad libitum. […] Tumor size and body weight of each mouse were monitored three times a week until the end of experiment. […]

Assay [5] relates to murine Lewis lung carcinoma cells (LLC). Put plainly: Ad-RTS-mIL12 in the Lewis lung carcinoma (LLC) model. In kind it is in vivo, mouse. The settings on record: activator (L) chow alone. An excerpt:
Female, 6- to 8-week-old C57b/6 immunocompetent mice were inoculated subcutaneously (s.c.) with murine Lewis lung carcinoma cells (LLC). Five days post cell inoculation, the mice were randomized and assigned to treatment and control groups (n=5) for a total of four groups—no treatment (control), activator (RG-115932) alone, AdRTS-mIL12 alone and Ad-RTS-mIL12 plus activator. The cohorts receiving activator (L) were fed (2018 Teklad Global 18% Protein Rodent Diet (Harlan Laboratories) chow blended with activator (1000 mg/kg chow) ad libitum. Cohorts receiving treatment with Ad-RTS-mIL12 alone or no treatment continued to receive a regular diet. Treatment was initiated when the tumor reached 28±6 mm^3. The Ad-RTS-mIL12 (1e10 vp/100 ul in PBS) was given to mice through intratumoral (i.t.) injection on Day 6, 9 and 13 post tumor cell inoculation. Activator chow (L) was started to given to mice 24 hr prior to vector administration. Tumor size and body weight of each mouse were monitored three times a week using calipers and a weight scale until the end of experiment. The experiment was terminated when the mice tumor size exceeded >1200 mm^3. Data were uploaded into Study Log animal study software.

The subject of assay [6] is PAN02 pancreatic cancer cells. Put plainly: Ad-RTS-mIL12 in the pancreatic cancer (PAN02) model. In kind it is in vivo, mouse. The settings on record: activator alone. The procedure: Female, 6- to 8-week-old C57b/6 immuno competent mice were inoculated subcutaneously (s.c.) with syngenic PAN02 pancreatic cancer cells (ATCC). Six days post cell inoculation, the mice were randomized into groups of five animals each in four groups—no treatment, activator (RG-115932) alone, Ad-RTS-mIL12 alone and Ad-RTS-mIL12 plus activator. The cohorts receiving activator ligand were fed 2018 Teklad Global 18% Protein Rodent Diet chow (Harlan Laboratories) blended with activator (1000 mg/kg chow) ad libitum. Cohorts receiving treatment with Ad-RTS-mIL12 alone or no treatment continued to receive 2018 Teklad Global 18% Protein Rodent Diet chow. Mice received treatment with a single intratumoral (i.t.) injection of Ad-RTS-mIL12 at dose level of 1e10 vp/100 ul in PBS, on Day 7 and Day 14 post tumor cell implantation. The tumor size averaged […] at the time of vector treatment initiation.
Tumor size and body weight of each mouse were monitored three times a week until the end of experiment. The experiment was terminated when the mice tumor size exceeded 600 mm^3. Since pancreatic tumors grow very slowly, we defined […]. The tumor growth in mice receiving no treatment was normal.

As to `CCC[C@@H](N(NC(=O)c1cccc(OC)c1CC)C(=O)c1cc(C)cc(C)c1)C(C)(C)C` [RG-115932, (R)-3,5-Dimethyl-benzoic acid N-(1-tert-butyl-butyl)-N′-(2-ethyl-3-methoxy-benzoyl)-hydrazide], the anti-tumor activity entry in assay [1] is “did not have anti-tumor activity”. Also, the tumor growth result in assay [2] is reported as “did not inhibit tumor growth”. The anti-tumor effect entry in assay [3] is reported as “no effect”. For the same compound, the “tumor growth inhibition relative to control” value was found to be 22% in assay [4] and 35% in assay [4] (listed as activator ligand (L)). Moreover, in assay [5], the “tumor growth kinetics versus control” value is on record as “approximately similar tumor growth kinetics”. Besides, in assay [6], the tumor growth delay entry is given as “minor tumor growth delay”.

(Values after US10584351B2, “Vectors conditionally expressing therapeutic proteins, host cells comprising the vectors, and uses thereof” (Intrexon Corporation, priority 2010, dated 2020).)
